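The concentration for 50% growth inhibition is given as GI50. TGI denotes the concentration required for complete inhibition of growth.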
Tests used:
Assay in all cases: NCI-60 cell line screen, 384-well format
[1] = tested on: A498 renal
[2] = tested on: 786-0 renal
[3] = tested on: MDA-MB-468 breast
[4] = tested on: NCI-H226 lung
[5] = tested on: SNB-19 CNS
[6] = tested on: ACHN renal
[7] = tested on: OVCAR-5 ovarian
[8] = tested on: NCI-H522 lung
[9] = tested on: SK-MEL-28 melanoma
[10] = tested on: RXF 393 renal
[11] = tested on: HT29 colon
[12] = tested on: MCF7 breast
[13] = tested on: DU-145 prostate
[14] = tested on: OVCAR-3 ovarian
[15] = tested on: K-562 leukemia
[16] = tested on: SF-539 CNS
[17] = tested on: SW-620 colon
[18] = tested on: MALME-3M melanoma
[19] = tested on: PC-3 prostate
[20] = tested on: HCT-116 colon
[21] = tested on: BT-549 breast
[22] = tested on: UACC-62 melanoma
[23] = tested on: NCI/ADR-RES ovarian
[24] = tested on: HCC-2998 colon
[25] = tested on: MDA-MB-435 melanoma
[26] = tested on: UACC-257 melanoma
[27] = tested on: RPMI-8226 leukemia
[28] = tested on: NCI-H322M lung
[29] = tested on: IGROV1 ovarian
[30] = tested on: HCT-15 colon
[31] = tested on: SF-295 CNS
[32] = tested on: NCI-H23 lung
[33] = tested on: SK-MEL-5 melanoma
[34] = tested on: HL-60(TB) leukemia
[35] = tested on: T-47D breast
[36] = tested on: COLO 205 colon
[37] = tested on: TK-10 renal
[38] = tested on: CCRF-CEM leukemia
[39] = tested on: SF-268 CNS
[40] = tested on: SR leukemia
[41] = tested on: M14 melanoma
[42] = tested on: MOLT-4 leukemia
[43] = tested on: U251 glioblastoma
[44] = tested on: HOP-92 NSCLC
[45] = tested on: OVCAR-4 ovarian
[46] = tested on: SNB-75 CNS
[47] = tested on: UO-31 renal
[48] = tested on: SK-OV-3 ovarian
[49] = tested on: MDA-MB-231 breast
[50] = tested on: SK-MEL-2 melanoma
[51] = tested on: CAKI-1 renal
[52] = tested on: HOP-62 NSCLC
[53] = tested on: A549 NSCLC
[54] = tested on: LOX IMVI melanoma
[55] = tested on: KM12 colon
[56] = tested on: HS 578T breast
[57] = tested on: SN12C renal
[58] = tested on: NCI-H460 NSCLC

`COc1cccc(Nc2ncnn3ccc(CN4CC[C@@H](N)[C@H](O)C4)c23)c1` was tested, and the GI50 [1] was 1.3 µM, the TGI [1] was 9 µM and the GI50 [2] was 0.989 µM. The TGI [2] was 14.4 µM, the GI50 [3] was 0.0266 µM and the TGI [3] was 0.203 µM. It also gave a GI50 [4] of 1.97 µM, a TGI [4] of 12.4 µM and a GI50 [5] of 15.4 µM. The TGI [5] was 83.6 µM, the GI50 [6] was 0.0368 µM and the TGI [6] was 5.84 µM. It also gave a GI50 [7] of 0.686 µM, a TGI [7] of 43.9 µM and a TGI [8] of 9.99 µM. For the same compound, the GI50 [9] was 18.3 µM, the TGI [9] was 32.4 µM and the GI50 [10] was 0.435 µM. The TGI [10] was 3.21 µM, the GI50 [11] was 12.8 µM and the TGI [11] was 26.4 µM. For the same compound, the GI50 [12] was 13.9 µM, the TGI [12] was 27.4 µM and the GI50 [13] was 1.11 µM. It also gave a TGI [13] of 28.4 µM, a GI50 [14] of 0.0815 µM and a TGI [14] of 21.8 µM. For the same compound, the GI50 [15] was 0.0847 µM, the TGI [15] was 0.228 µM and the GI50 [16] was 1.55 µM. For the same compound, the TGI [16] was 13.1 µM, the GI50 [17] was 17.5 µM and the TGI [17] was 32.5 µM. It also gave a GI50 [18] of 12.8 µM, a TGI [18] of 25.5 µM and a GI50 [19] of 13.3 µM. The TGI [19] was 87.7 µM, the GI50 [20] was 12.3 µM and the TGI [20] was 25.6 µM. The GI50 [21] was 7.04 µM, the TGI [21] was 20.5 µM and the GI50 [22] was 16.1 µM. It also gave a TGI [22] of 29.8 µM, a GI50 [23] of 11.2 µM and a TGI [23] of 27.6 µM. It also gave a GI50 [24] of 12.5 µM, a TGI [24] of 25.5 µM and a GI50 [25] of 18.2 µM. The TGI [25] was 36.6 µM, the GI50 [26] was 11.3 µM and the TGI [26] was 23.5 µM. For the same compound, the GI50 [27] was 16.4 µM, the TGI [27] was 30.2 µM and the GI50 [28] was 0.0313 µM. The TGI [28] was 0.941 µM, the TGI [29] was 0.512 µM and the GI50 [30] was 2.32 µM. For the same compound, the TGI [30] was 32.7 µM, the GI50 [31] was 13.9 µM and the TGI [31] was 30.9 µM. It also gave a GI50 [32] of 2.42 µM, a TGI [32] of 16.8 µM and a GI50 [33] of 15.6 µM. It also gave a TGI [33] of 29 µM, a GI50 [34] of 17.6 µM and a TGI [34] of 31.5 µM. The GI50 [35] was 15.8 µM, the TGI [35] was 30.2 µM and the GI50 [36] was 14.8 µM. The TGI [36] was 28.2 µM, the GI50 [37] was 0.0524 µM and the TGI [37] was 1.27 µM. The GI50 [38] was 14.7 µM, the TGI [38] was 28 µM and the GI50 [39] was 4.4 µM. For the same compound, the TGI [39] was 70.3 µM, the GI50 [40] was 12.5 µM and the TGI [40] was 25.2 µM. The GI50 [41] was 19 µM, the TGI [41] was 33.2 µM and the GI50 [42] was 0.8 µM. For the same compound, the TGI [42] was 13.9 µM, the GI50 [43] was 12.9 µM and the TGI [43] was 26.4 µM. The GI50 [44] was 6.62 µM, the TGI [44] was 28.9 µM and the GI50 [45] was 24.8 µM. The TGI [45] was > 100 µM, the GI50 [46] was 0.247 µM and the TGI [46] was 1.37 µM. It also gave a GI50 [47] of 1.1 µM, a TGI [47] of 7.47 µM and a GI50 [48] of 0.0333 µM. The TGI [48] was 0.607 µM, the GI50 [49] was 1.99 µM and the TGI [49] was 25.4 µM. For the same compound, the GI50 [50] was 26.7 µM, the TGI [50] was 41.5 µM and the GI50 [51] was 0.295 µM. For the same compound, the TGI [51] was 7.12 µM, the GI50 [52] was 2.7 µM and the TGI [52] was 30.2 µM. For the same compound, the GI50 [53] was 0.902 µM, the TGI [53] was 14.4 µM and the GI50 [54] was 7.68 µM. For the same compound, the TGI [54] was 20.4 µM, the GI50 [55] was 3.54 µM and the TGI [55] was 15.7 µM. It also gave a GI50 [56] of 1.49 µM, a TGI [56] of 6.24 µM and a GI50 [57] of 0.18 µM. The TGI [57] was 12 µM, the GI50 [58] was 11.3 µM and the TGI [58] was 24.3 µM.
